The target in the assay is Serine/threonine-protein kinase PAK 5 (Homo sapiens) (UniProt Q9P286). Put plainly: PAK5 binders by thermal shift, biophysical, DSF, SYPRO orange, recombinant protein (AID 390). Conditions: at 10 µM, active compounds read high.

SMILES strings stand for the structures.

Chain of Serine/threonine-protein kinase PAK 5 (Homo sapiens) (Q9P286 whole entry, looked up): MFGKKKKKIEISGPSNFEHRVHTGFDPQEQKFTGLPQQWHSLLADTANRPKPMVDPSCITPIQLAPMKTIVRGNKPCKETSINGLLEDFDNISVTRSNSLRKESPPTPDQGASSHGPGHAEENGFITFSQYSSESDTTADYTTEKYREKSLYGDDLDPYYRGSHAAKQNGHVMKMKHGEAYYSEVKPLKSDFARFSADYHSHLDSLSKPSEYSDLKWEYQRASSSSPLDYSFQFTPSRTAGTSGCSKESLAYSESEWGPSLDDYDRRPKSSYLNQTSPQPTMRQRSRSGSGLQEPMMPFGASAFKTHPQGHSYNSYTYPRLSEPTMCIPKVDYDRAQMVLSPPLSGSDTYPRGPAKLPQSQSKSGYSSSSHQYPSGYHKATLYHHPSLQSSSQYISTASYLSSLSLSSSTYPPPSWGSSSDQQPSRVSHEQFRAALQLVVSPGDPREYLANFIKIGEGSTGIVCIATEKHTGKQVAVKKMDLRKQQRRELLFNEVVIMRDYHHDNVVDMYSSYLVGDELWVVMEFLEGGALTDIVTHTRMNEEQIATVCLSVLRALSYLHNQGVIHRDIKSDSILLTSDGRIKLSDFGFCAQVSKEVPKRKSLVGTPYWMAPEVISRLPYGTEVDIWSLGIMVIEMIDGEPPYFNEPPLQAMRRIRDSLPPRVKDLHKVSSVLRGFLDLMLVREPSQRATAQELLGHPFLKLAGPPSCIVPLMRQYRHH

`Cn1cc(/C=C2\C(=O)Nc3ccc(S(N)(=O)=O)cc32)c2ccccc21`: the Tm shift is 4.3 Celsius. Take `CC(C)C(CO)Nc1nc(Nc2cccc(Cl)c2)c2ncn(C(C)C)c2n1` (stereo not given): the Tm shift is 4.5 Celsius. Regarding `CC(C)c1nn(-c2c(Cl)cccc2Cl)c2nc(Cc3ccc(OCCO)cc3)[nH]c(=O)c12`, the Tm shift was 3.1 Celsius. On to `CC(=O)n1c(C2=c3ccccc3=NC2=O)c(O)[nH]c1=S`, for which the Tm shift is 3.1 Celsius.

In the case of `O=C1Cc2c([nH]c3ccc(N(O)O)cc23)-c2ccccc2N1`, the Tm shift is 3.9 Celsius. On to `NC(=O)c1ccc(-c2nc(-c3ccc4c(c3)OCCO4)c(-c3ccccn3)[nH]2)cc1`, for which the Tm shift was 4.1 Celsius.

For `CCn1cnc2c(Nc3cccc(Cl)c3)nc(N[C@@H]3CCCC[C@@H]3N)nc21`, the Tm shift was 6.75 Celsius. Consider `NCCNc1ncc(C(N)=O)c(Nc2cccc(C(F)(F)F)c2)n1`, for which the Tm shift is 5.9 Celsius. Take `O=C1Cc2c([nH]c3ccc(Br)cc23)-c2ccccc2N1`: the Tm shift is 3.5 Celsius. As to `OCC(O)CCO/N=C1/C(c2c(O)[nH]c3ccccc23)=Nc2ccccc21` (stereo not given), the Tm shift is 3.37 Celsius.

As for `CCN(CC)CCNC(=O)c1c(C)[nH]c(/C=C2\C(=O)Nc3ccc(Cl)cc32)c1C`, the Tm shift was 4.47 Celsius. With `O=Nc1c(-c2c(O)[nH]c3ccccc23)[nH]c2ccccc12`, the Tm shift was 4.2 Celsius. Take `O=C1NC(=O)c2c1c1c3ccccc3n3c1c1c2c2ccccc2n1[C@@H]1CCC3O1`: the Tm shift is 3.69 Celsius.

Take `Cc1cc(Nc2nc(-c3ccccc3)nc3ccccc23)n[nH]1`: the Tm shift was 4.73 Celsius. The result for `NS(=O)(=O)c1ccc(Nc2nc(OCC3CCCCC3)c3[nH]cnc3n2)cc1` reads 3.3 Celsius; that for `O=C1NCc2c1c1c3ccccc3[nH]c1c1[nH]c3ccccc3c21`, 4.4 Celsius. In the case of `Nc1nc(Nc2ccc(S(N)(=O)=O)cc2)nn1C(=S)Nc1c(F)cccc1F`, the Tm shift is 5.57 Celsius. The result for `O=Nc1c(-c2c(O)[nH]c3cc(Br)ccc23)[nH]c2ccccc12` reads 4.6 Celsius; that for `N#CCCc1ccc2c(c1)-c1[nH]c3ccc(-n4oo4)cc3c1CC(=O)N2`, 4.05 Celsius; that for `CC(O)(O)C1(O)C[C@@H]2O[C@@]1(C)n1c3ccccc3c3c4c(c5c6ccccc6n2c5c31)C(=O)NC4` (stereo not given in full), 5.05 Celsius.

These data come from PubChem BioAssay AID390 (SGCOxCompounds, 2006).
